Results published in US11629201B2, “PSMA-binding agents and uses thereof” (ITM Isotope Technologies Munich SE, priority 2017, dated 2023).
“And” between values parts separate entries of the source, which are not always exact repeats. Identical values can stand only once.

Experiments:
[1] = system: PSMA-positive PC-3 PIP cells; experiment: Cell uptake and internalization in PSMA-positive PC-3 PIP cells; type: cell-based
human plasma proteins = experiment: Ultrafiltration assay, binding to human plasma proteins; settings: human plasma, ultrafiltration
Procedure: Therefore, the compounds were labeled with ^177Lu at a specific activity of 50 MBq/nmol and incubated in human plasma samples or PBS at room temperature. The free and plasma-bound fractions were separated using a centrifree ultrafiltration device (4104 centrifugal filter units [Millipore]; 30000 Da nominal molecular weight limit, methylcellulose micropartition membranes). The incubated solution was loaded to the ultrafiltration device and centrifuged at 2500 rpm for 40 min at 20° C. Samples from the filtrate were taken an analyzed for radioactivity in a gamma-counter. The amount of plasma-bound compound was calculated as the fraction of radioactivity measured in the filtrate relative to the corresponding loading solution (set to 100%).
Determination of Albumin-binding Properties. The binding of the radioligands to human plasma proteins was determined by an ultrafiltration assay. […] Three independent experiments were performed in duplicates with both radioligands and the data was fitted to a semi-logarithmic plot (non-linear regression, one-site, specific binding) to obtain the half maximum binding (B50) in GraphPad Prism software (version 7).
The ^177Lu-labeled PSMA ligands (50 MBq/nmol) were diluted in mouse plasma (Rockland, USA) and human plasma (Stiftung Blutspende SRK Aargau-Solothurn, Switzerland), respectively, and incubated for 15 min at room temperature. In addition, the radioligands were diluted in PBS (buffer solution without proteins) as a control experiment. Aliquots of the solutions were loaded onto an ultrafiltration device and centrifuged. The filtered activity was measured with a γ-counter and used for calculating the plasma protein-bound activity (retained on the filter membrane) as the percentage of total added activity. […] Statistical analysis (one-way ANOVA with Bonferroni's multiple comparison post-test) was performed using GraphPad Prism software, version 7. A p-value of <0.05 was considered statistically significant.

[2] = system: PC-3 PIP/flu tumor-bearing mice; experiment: Biodistribution studies in PC-3 PIP/flu tumor-bearing mice; settings: for Tumor-to-blood / Tumor-to-kidney / Tumor-to-liver: PC-3 PIP tumor
mouse plasma proteins = experiment: Ultrafiltration assay, binding to mouse plasma proteins; type: in vitro ADME
Procedure: Filter Assay. […] In addition, the radioligands were diluted in PBS (buffer solution without proteins) as a control experiment. Aliquots of the solutions were loaded onto an ultrafiltration device and centrifuged. The filtered activity was measured with a γ-counter and used for calculating the plasma protein-bound activity (retained on the filter membrane) as the percentage of total added activity. […] Statistical analysis (one-way ANOVA with Bonferroni's multiple comparison post-test) was performed using GraphPad Prism software, version 7. A p-value of <0.05 was considered statistically significant.

[3] = non-decay-corrected biodistribution data up to 192 h p.i.

## O=C(O)CCC(NC(=O)NC(CCCCNC(=O)C(Cc1ccc2ccccc2c1)NC(=O)C1CCC(CNC(=O)C(CCCCNC(=O)CN2CCN(CC(=O)O)CCN(CC(=O)O)CCN(CC(=O)O)CC2)NC(=O)CC(NC(=O)CC(NC(=O)CC(NC(=O)CCCc2ccc(I)cc2)C(=O)O)C(=O)O)C(=O)O)CC1)C(=O)O)C(=O)O (stereo not shown) [^177Lu-PSMA-ALB-07, metal not drawn]
[1]; 2 h
  cell uptake: 52-57%
  internalized fraction: 18-24%
[1]; 4 h
  cell uptake: 60-63%
  internalized fraction: 20-26%
Human plasma proteins
  plasma protein-bound fraction: 95±0.1%
[2]; 4 h p.i.
  Blood: 6.67 ± 2.04 % IA/g
  Bone: 1.30 ± 0.27 % IA/g
  Heart: 2.43 ± 0.78 % IA/g
  Intestines: 1.27 ± 0.45 % IA/g
  Kidneys: 67.0 ± 9.50 % IA/g
  Liver: 1.94 ± 1.02 % IA/g
  Lung: 4.67 ± 0.92 % IA/g
  Muscle: 0.78 ± 0.22 % IA/g
  PC-3 PIP Tumor: 63.5 ± 27.4 % IA/g
  PC-3 flu Tumor: 1.80 ± 0.27 % IA/g
  Salivary glands: 2.09 ± 0.50 % IA/g
  Spleen: 3.41 ± 1.46 % IA/g
  Stomach: 1.09 ± 0.30 % IA/g
  Tumor-to-blood: 9327 ± 1.75
  Tumor-to-kidney: 0.88 ± 0.28
  Tumor-to-liver: 33.6 ± 6.56
[2]; 24 h p.i.
  Blood: 0.79 ± 0.08 % IA/g
  Bone: 0.31 ± 0.10 % IA/g
  Heart: 0.40 ± 0.00 % IA/g
  Intestines: 0.20 ± 0.03 % IA/g
  Kidneys: 51.9 ± 6.34 % IA/g
  Liver: 0.52 ± 0.04 % IA/g
  Lung: 0.73 ± 0.06 % IA/g
  Muscle: 0.13 ± 0.01 % IA/g
  PC-3 PIP Tumor: 84.6 ± 14.2 % IA/g
  PC-3 flu Tumor: 0.80 ± 0.17 % IA/g
  Salivary glands: 0.43 ± 0.04 % IA/g
  Spleen: 1.14 ± 0.04 % IA/g
  Stomach: 0.18 ± 0.06 % IA/g
  Tumor-to-blood: 107 ± 12.2 and 107 ± 10
  Tumor-to-kidney: 1.64 ± 0.29 and 1.6 ± 0.2
  Tumor-to-liver: 162 ± 17.3 and 162 ± 14
[2]; 48 h p.i.
  Tumor-to-blood: 154 ± 7
  Tumor-to-kidney: 2.3 ± 0.1
  Tumor-to-liver: 131 ± 13
[2]; 72 h p.i.
  Blood: 0.40 ± 0.06 % IA/g
  Bone: 0.31 ± 0.06 % IA/g
  Heart: 0.21 ± 0.01 % IA/g
  Intestines: 0.10 ± 0.01 % IA/g
  Kidneys: 26.0 ± 1.58 % IA/g
  Liver: 0.44 ± 0.08 % IA/g
  Lung: 0.43 ± 0.02 % IA/g
  Muscle: 0.08 ± 0.01 % IA/g
  PC-3 PIP Tumor: 62.6 ± 6.35 % IA/g
  PC-3 flu Tumor: 0.43 ± 0.04 % IA/g
  Salivary glands: 0.21 ± 0.01 % IA/g
  Spleen: 0.49 ± 0.03 % IA/g
  Stomach: 0.10 ± 0.01 % IA/g
  Tumor-to-blood: 160 ± 37.0
  Tumor-to-kidney: 2.41 ± 0.18
  Tumor-to-liver: 147 ± 38.4
[2]; [3]
  AUC PC-3 PIP tumor: 7007 ± 459 % IA/g · h
  AUC blood: 180 ± 7.2 % IA/g · h
  AUC kidneys: 3395 ± 201 % IA/g · h
  AUC liver: 72 ± 3.6 % IA/g · h
[2]; tumor to blood
  Ratio of AUCs AUCTu-to-AUCBl: 39
[2]; tumor to kidneys
  Ratio of AUCs AUC-Tu-to-AUC-Ki: 2.1
[2]; tumor to liver
  Ratio of AUCs AUCTu-to-AUCLi: 97
Mouse plasma proteins
  plasma protein-bound fraction: 64±2.1%
